# From patent publication US9944721B2, “Polysialic acid and use for treatment of neurodegenerative and neuroinflammatory diseases” (RHEINISCHE FRIEDRICH-WILHELMS UNIVERSITÄT BONN, priority 2013, dated 2018)
# Columns and labels:
# [1] = system: human microglial cells stimulated with fibrillary amyloid-β1-42; assay: Amyloid-β1-42 induced superoxide release of human microglia (DHE); assay type: cell-based; conditions: Aβ 10 μM
# Description: The human microglial cell line was treated with human Alzheimer's disease associated fibrillary amyloid-beta peptide (Aβ) to mimic inflammatory signalling of Alzheimer's disease brain tissue. To obtain fibrillary components of Aβ, the synthetic amyloid-beta peptide (amyloid-beta 1-42, Bachem/Brucker, 10 μM) was preincubated at 37° C. for at least three days. The human microglial cells were treated with the different concentrations of 0.15 μM, 0.5 μM, or 1.5 μM of low molecular weight polysialic acid (PSA-20) for 60 minutes followed by incubation for 15 minutes with fibrillary Aβ. Then, 30 μM dihydroethidium (DHE) was added and incubated at 37° C. for 15 minutes for measurement of superoxide anion radical production. Cells were fixed with 4% paraformaldehyde plus 0.25% glutaraldehyde and analyzed by confocal microscopy. For the quantification of DHE staining intensity six pictures of each experiment were obtained and analyzed by ImageJ software (NIH). The background was subtracted and the mean values of the staining intensities were compared. Cells were fixed and the intensity of DHE was quantified by confocal microscopy.
# To confirm the specificity of the DHE measurement, the determination of the effect of PSA-20 on superoxide production in human microglial cells was repeated. As a control the radical scavenger Trolox, a water-soluble vitamin E analogue, was added to the system. Furthermore, as additional control superoxide dismutase-1 (SOD1) was added into the medium. Superoxide should no longer be detectable by the DHE dye after successful transformation of superoxide by SOD1.
# Human microglial cells were cultured alone and production of reactive oxygen species was analyzed after treatment with the Alzheimer's disease plaques associated fibrillary amyloid-β1-42. To measure the relative production of superoxide by the microglial cells, cells were plated in 4-chamber culture dishes. After 24 hours human microglial cells were treated with 1.5 μM of low molecular weight polysialic acid (PSA-20) for 60 minutes followed by incubation for 15 minutes with 10 μM fibrillary amyloid-β1-42. Control dishes were treated with either 1.5 μM PSA-20 and 40 μM Trolox or 1.5 μM PSA-20 and 20 μg/ml superoxide dismutase-1 (SOD1, Serva). Then, cells were washed 2-times with Krebs-HEPES-buffer and afterwards incubated for 15 minutes with 30 μM DHE solution (diluted in Krebs-HEPES-buffer). Finally cells were washed 2-times with Krebs-HEPES-buffer and fixed for 15 minutes with 0.25% glutaraldehyde and 4% PFA. In total, six images were randomly collected per experimental group by confocal laser scanning microscopy (Fluoview 1000, Olympus). All cells of the collected images were analyzed by Image J software (NIH).
# [2] = system: human microglia stimulated with neural debris or Drusen-like debris; assay: Debris-induced superoxide release of human microglia (macular degeneration culture model, DHE); assay type: cell-based
# Description: Second, effect of PSA-20 on microglia stimulated with neural cellular debris was analyzed. Drusen containing cellular debris is one characteristics of senile macular degeneration. To study the effect of degenerated material on the retinal microglia, we prepared neural debris by hypotonic and mechanic lysis of human neurons derived from induced pluripotent stem cells. Then, we treated the human microglial line derived from induced pluripotent stem cells and analyzed the effect of PSA-20. Superoxide release was determined by the fluorescent dye DHE. […] Cells were fixed with 4% paraformaldehyde plus 0.25% glutaraldehyde and analyzed by confocal microscopy. For the quantification of DHE staining intensity six pictures of each experiment were obtained and analyzed by ImageJ software (NIH). […] Cells were fixed and the intensity of DHE was quantified by confocal microscopy. […]
# To obtain Drusen-like debris from the retina, human retinal pigment epithelium ARPE-19 cells were treated with 80 nM okadaic acid for 24 hours at 37° C. and 5% CO2, centrifuged, washed three times with PBS and the pellet was frozen at −20° C. […] Cells were fixed and the release of superoxide was quantified by the intensity of the DHE dye. […]
substance,measurement,setting,value
poly-(α(2→8)Neu5Ac)n [PSA-20],Aβ induced superoxide release,"[1]; 1.5 μM, 60 minutes pre-treatment, FIG. 4A",reduced
same,amyloid-β1-42 induced stimulation of the superoxide production,"[1]; repeat, FIG. 4B, PSA-20 1.5 μM, Trolox 40 μM, SOD1 20 μg/ml",prevented
same,relative superoxide production,"[2]; Drusen-like debris from ARPE-19 cells, 10 μg/ml PSA-20, 30 minutes, without PSA-20 1.38+/−0.02, FIG. 7C",0.92+/−0.22
same,cellular neural debris induced superoxide production,"[2]; neural debris from human neurons, FIG. 7B",prevented
